Legend:
[1] = Serum biochemistry / blood examination of treated mice; assay type: in vivo; conditions: 0.4 µg/mouse i.p., Day 14
Protocol: (§1) Toxicity Body weight change is an indicator of systemic toxicity. Accordingly, the body weights of mice intraperitoneally treated with different doses (0.04 and 0.4 µg/mouse) of either 1 or 3 were measured (Fig. S1). […] A blood hematological examination (including nineteen parameters) was also conducted on these mice on Day 14 (Fig. S2). There were no significant changes in almost any of the parameters in the mice treated with either 1 or 3 at doses of 0.04 or 0.4 µg/mouse.
Male BALB/c mice (7 weeks old) were purchased from Charles River Laboratories Japan, Inc. Each compound was intraperitoneally injected daily for 14 days. […] Serum was collected by centrifuging blood at 5000 rpm for 10 min. Biochemistry was performed in Oriental Yeast Co., Ltd, Japan.

[2] = Investigation of maximum tolerated dose (body weight of mice); assay type: in vivo, mouse; conditions: 14 days
Protocol: as §1

[3] = system: SW620 cells; assay: WST-8 cytotoxicity assay, SW620; conditions: read-out: IC50 SW620; human colon cancer cell, 72 h, mean ± SE (n = 3)
Protocol: (§2) With a range of chromophore analogues in hand, their toxicity to SW620 cells was investigated by WST assays.
(§3) Basically, the evaluation was performed using methods previously reported by our group[20],[23]. Cytotoxic activities of compounds against MIA PaCa-2 (American Type Culture Collection), SW620 (European Collection of Authenticated Cell Cultures) were measured by WST-8 assay according to manufacturer’s protocol. Briefly, cells (1 × 10^4 cells/well) in a 96-well plate were cultured in medium (for MIA PaCa-2, D-MEM (Wako, Japan) containing 10% fetal bovine serum (Funakoshi, Japan), 100 units/mL penicillin G and 100 µg/mL streptomycin (Wako, Japan), for SW620, RPMI-1640 (Wako, Japan) containing 10% fetal bovine serum, 100 units/mL penicillin G and 100 µg/mL streptomycin) were cultured at 37 °C for 24 h under 5% CO2 atmosphere. Then, cells were treated with test compounds (final DMSO concentration was 1%) at 37 °C for 72 h under 5% CO2 atmosphere. Then, cells were treated with a solution of Cell Counting Kit-8® (Dojindo, Japan) for 3 h. After that, cell viabilities were determined based on the measurement of absorption at 450 nm of the wells by using TECAN Infinite® M200 microplate reader. The results were expressed as a percentage of the negative control (cells treated with DMSO only), and that value was fixed at 100%.

[4] = Hepatic microsomal stability assay, mouse; assay type: in vitro ADME; conditions: 0.2 mg/mL microsomes, 37 °C, 30 min; for CLint scaled: microsomes, 1 μM; for CLint scaled at 1 μM: mouse liver microsomes, pH 7.4, 1 μM
Protocol: (§4) Before investigating the in vivo efficacy of 3, its metabolic stability was evaluated by treatment with human or mouse liver microsomes at 37 °C for 30 min, and the remaining analogues were analyzed by LC–MS/MS (Table 3). […] This means that approximately 67% of 3 was unaffected by human liver microsomes.
(§5) Basically, the analysis was performed using methods previously reported. Disappearance of the parent compound over time was measured by using the amount of drug at time zero as a reference. After 5 min of preincubation, 1 mM NADPH (final concentration, the same applies to the following, NADPH( +)) or 0.1 M phosphate buffer (pH 7.4, NADPH(−))) was added to a mixture containing 1 μM of the test compound, 0.2 mg/mL of human or mouse liver microsomes (Sekisui XenoTech LLC (Kansas City, KS)), 1 mM EDTA and 0.1 M phosphate buffer (pH 7.4) and incubated at 37 °C for 30 min by rotation at 60 rpm. An aliquot of 50 μL of the incubation mixture was sampled and added to 250 μL of chilled acetonitrile/internal standard (IS). After centrifuging for 15 min at 3150×g (4 °C), the supernatants were analyzed by LC–MS/MS. Hepatic microsomal stability (mL/min/kg, CLint) was calculated according to the previous report, using 48.8 and 45.4 mg MS protein/g liver and 25.7 and 87.5 g liver/kg body weight as scaling factors for human and mouse, respectively.
(§6) Basically, the analysis was performed using methods previously reported. An LC-MS8060 instrument equipped with a Shimadzu Nexera series LC system (Shimadzu, Kyoto, Japan) was used. All compounds were analyzed in multi-reaction monitoring mode under electron spray ionization conditions. The analytical column used was a […] C18 MGIII (3 μm × 2.0 mmID × 35 mm; OSAKA SODA, Osaka, Japan) at 50 °C. The gradient mobile phase consisted of 0.1% formic acid in water (mobile phase A,) and 0.1% formic acid in acetonitrile (mobile phase B) at a total flow rate of 1 mL/min. The initial mobile phase composition was 10% B, which was held constant for 0.2 min, increased in a linear fashion to 90% B over 1 min, then held constant for 0.8 min, and finally brought back to the initial condition of 10% B over 0.01 min and re-equilibrated for 1 min. The transitions (precursor ion > product ion) of echinomycin, 3 and IS (methyl testosterone) are 1101.45 > 1053.5 (positive), 1083.5 > 523.95 (negative), and 303.1 > 109.1 (positive), respectively.

[5] = Hepatic microsomal stability assay, human; assay type: in vitro ADME; conditions: 30 min; for CLint scaled: microsomes, 1 μM; for CLint scaled / CLint scaled at 1 μM: 0.2 mg/mL microsomes, 37 °C; for CLint scaled at 1 μM: human liver microsomes, pH 7.4, 1 μM
Protocol: as §4, §5, §6

[6] = system: MIA PaCa-2 cells; conditions: read-out: IC50 MIA PaCa-2; human pancreatic carcinoma cell, 72 h, mean ± SE (n = 3)
Protocol: as §2, §3

[7] = NADPH(+), read-out: Metabolic stability (CLint) Mouse NADPH(+)
[8] = NADPH(−), read-out: Metabolic stability (CLint) Mouse NADPH(−)
[9] = NADPH(+), read-out: Metabolic stability (CLint) Human NADPH(+)
[10] = NADPH(−), read-out: Metabolic stability (CLint) Human NADPH(−)

SMILES | alanine aminotransferase (ALT) [1] | aspartate aminotransferase (AST) [1] | lactate dehydrogenase (LDH) [1] | total bilirubin (T-BIL) [1] | body weight ([2]; i.p. 0.04 and 0.4 µg/mouse, daily) | dose up to which no significant toxicity is shown ([2]; i.p. daily, body weight and blood examination) [µg/mouse] | maximum tolerated dose ([2]; i.p. daily, expected) [µg/mouse] | IC50 [3] [nM] | CLint scaled [4, 7] [mL/min/kg] | CLint scaled [4, 8] [mL/min/kg] | remaining at 0.5 h, 1 μM ([5]; liver microsomes, pH 7.4, 37 °C, in the presence of NADPH, read-out: fraction unaffected by human liver microsomes) [%] | CLint scaled [5, 9] [mL/min/kg] | CLint scaled [5, 10] [mL/min/kg] | IC50 [6] [nM] | CLint scaled at 1 μM [4, 7] [mL/min/kg] | CLint scaled at 1 μM [4, 8] [mL/min/kg] | CLint scaled at 1 μM [5, 9] [mL/min/kg] | CLint scaled at 1 μM [5, 10] [mL/min/kg]
CC(C)[C@H]1C(=O)OC[C@@H](NC(=O)c2nc3ccccc3cc2O)C(=O)N[C@@H](C)C(=O)N(C)[C@H]2CSC[C@@H](C(=O)N1C)N(C)C(=O)[C@H](C)NC(=O)[C@H](NC(=O)c1nc3ccccc3cc1O)COC(=O)[C@H](C(C)C)N(C)C2=O [Compound 3] | increase | increase | increase | decrease | did not differ greatly from those of the control | ≥ 0.04 | 0.04 | 0.85 ± 0.13 | 386 | 118 | ~67 | 83.7 | 45.1 | 1.4 ± 0.1 | – | – | – | –
Cc1ncc2n1-c1ccc(Cl)cc1C(c1ccccc1F)=NC2 [Midazolam] | – | – | – | – | – | – | – | – | – | – | – | – | – | – | 4010 | < 69.8 | 435 | < 22

Reference: article PMC10985088, “Synthesis and biological evaluation of echinomycin analogues as potential colon cancer agent” (Scientific Reports, 2024)
